# In patent US20230212571A1, “COMPOSITIONS AND METHODS FOR DELIVERING POLYNUCLEOTIDES” (NeOnc Technologies, Inc., priority 2020, published 2023):
# How the values were obtained:
# [1] = tested on: AVM-BEC; details: previous results from our laboratory (Ferreira 2014); cited from earlier work
# [2] = Pharmacokinetic study of miR-18a in serum and brain by RT-qPCR; assay type: in vivo, C57BL/6 mice
# Source text: All animal protocols were approved by the USC's Institutional Animal Care and Use Committee (IACUC) and strictly adhered to. MiR-18a was co-administered with Ago-2 (0.0008 nmol/mouse) to increase stability and cellular uptake^9 (Ferreira R, Santos T, Amar A, et al. Argonaute-2 promotes miR-18a entry in human brain endothelial cells. J Am Heart Assoc. 2014; 3(3):e000968). (FIG. 9). Details about randomization, blinding, group size and inclusion/exclusion criteria have been included in Methods.
# For pharmacokinetic measurements, 0.8 nmol/mouse of miR-18a were administered IV or IN to C57BL/6 mice. At the indicated time points, mice were euthanized, and the serum and brains were collected and flash-frozen in liquid nitrogen (n=6 per time-point and condition). MicroRNAs were isolated using the mirVana™ miRNA Isolation Kit and measured by RT-qPCR as described above.
# [3] = tested on: BMP4 3′UTR; experiment: BMP4 3′UTR luciferase reporter in ECs; assay type: cell-based, human; details: vs untreated or scramble microRNA, n=6
# Description: Plasmid constructs pcDNA3-ALK2^WT (Addgene #80870) and pcDNA3-ALK2^Q207D (Addgene #80871) were a gift from Aristidis Moustakas^7. (Meyer B, Schaller C, Frenkel C, Ebeling B, Schramm J. Distributions of local oxygen saturation and its response to changes of mean arterial blood pressure in the cerebral cortex adjacent to arteriovenous malformations. Stroke. 1999; 30(12):2623-2630) 10^4 AVM-BEC were seeded 24 h before transfection. The plasmid vector containing the 3′ untranslated region (3′UTR) of human BMP4, pRP [Exp]-Puro-CMV>Luciferase:{hBMP4_3′UTR}, was constructed and packaged by VectorBuilder. The vector ID is VB200205-1078zdv, which can be used to retrieve detailed information about the vector on vectorbuilder.com. Transient transfections were performed with Lipofectamine RNAiMax (Thermo Fisher Scientific) according to the manufacturer's instructions. After 4 h, medium was replaced by fresh medium containing microRNA.
# For the experiments regarding the direct binding of miR-18a to BMP4 (information about the plasmid was included in Methods), the luciferase activity of the hBMP4 3′UTR was read in a Varioskan™ LUX multimode microplate reader (Thermo Fisher Scientific).
# [4] = tested on: Mgp^−/− mouse model of AVM; experiment: Brain appearance and immunostaining of brain sections; assay type: in vivo; details: Mgp^−/− mice, IN 2-weeks
# Description: Immunostaining was performed as previously described^15. ([…], Golden […], et al. Glioma-associated endothelial cells are chemoresistant to temozolomide. J Neurooncol. 2009; 95(1):13-22). Primary antibodies used were rabbit anti-MMP2, mouse anti-MMP9 (1:150, Abgent), rabbit anti-phospho-Smad1/5 ([…]/465) (1:50, Abgent), rabbit anti-BMP4, rabbit anti-PAI-1 (1:50, Proteintech), rabbit anti-VEGF (1:50, Santa Cruz Biotechnology), rabbit anti-HIF-1α (1:50, Cell Signaling Technology), and rabbit anti-phospho-Smad3 ([…]/425) (1:50, GeneTex). Secondary antibodies used were biotinylated anti-rabbit and biotinylated anti-mouse (1:300, Vector Laboratories), accordingly. Pictures were taken in an Eclipse 80i microscope (Nikon). Images shown are representative of three-five independent experiments. In vivo efficacy studies were performed using 3-week-old Mgp^+/- C57BL/6 mice^16,17 (Yao Y, Jumabay M, Wang A, Boström K I. Matrix Gla protein deficiency causes arteriovenous malformations in mice. J Clin Invest. 2011; 121(8):2993-3004) (Yao Y, Yao […], et al. Reducing Jagged 1 and 2 levels prevents cerebral arteriovenous malformations in matrix Gla protein deficiency. Proc Nat Acad Sci USA. 2013; 110(47):19071-19076). provided by Dr. Yucheng Yao (UCLA, Los Angeles) and mated to obtain the appropriate genotypes. Only about 10-15% of each litter were born with the Mgp^-/- genotype, and among those, only about 45% survived until the end of the treatment and/or the imaging of the brain vasculature, due to the extreme severity of the disease in this mouse model. These animals not only suffer AVMs in the brain, but all major organs are also affected and dysfunctional. Thus, […] might die due to several causes, including stroke, severe lung inflammation that causes respiratory failure-especially when anesthesia is used-, organ failure due to liver and/or spleen malfunction, heart failure, etc., drastically limiting the number of the Mgp^-/- mice available for the CTA studies. […] Treatment with 0.08 nmol/mouse of miR-18a or scramble microRNA was administered IN daily for 2-weeks. 2.5 μL/nostril were delivered in RNase-free water. Ultra-high-resolution in vivo computed tomography angiography (CTA) was performed in mice for 3D imaging of whole brain vascular architecture^18, ([…], Rendon D, et al. Ultra-High-Resolution In vivo Computed Tomography Imaging of Mouse Cerebrovasculature Using a Long Circulating Blood Pool Contrast Agent. Scientific reports. 2015; 5:10178) as described in Data. The vascular data was quantified using ImageJ. Regions of interest encompassing the Circle of Willis (CoW) and the azygous of the anterior cerebral artery (AzACA) and its branches were selected in CT images using thick slab maximum intensity projection (MIP) or 3D volume rendering. The images were converted to 8-bit grayscale and thresholded to highlight the vasculature containing pixels. The pixels were analyzed as particles and normalized to results from the wildtype mice (WT, Mgp^+/+). Immediately after imaging, mice were euthanized, and brains were frozen in Clear Frozen Section Compound (VWR) and stored at -80° C. Blood was collected for complete blood count (Antech). The lungs, livers, spleens, femurs, and kidneys were harvested and fixed in 10% formalin. Photographs of the stained sections were captured using an Eclipse 80i microscope (Nikon).
substance,measurement,setting,value
hsa-miR-18a-5p (UAGGUGCAUCUAGUGCAGAUAG; chemistry not given here; listed as Homo sapiens) [small non-coding RNA molecule involved in post-transcriptional regulation of gene expression; Dharmacon],TSP-1 release by AVM-BECs (ELISA of cell supernatants),[1],induces TSP-1 release
same,miR-18a levels compared to scramble microRNA-treated mice,"[2]; 0.8 nmol/mouse IV or IN, C57BL/6 mice",approximately 40 times
same,"retention of miR-18a, IN compared with IV","[2]; 0.8 nmol/mouse, IN administration",longer retention times
same,"time of highest levels of miR-18a in serum and brains, IV compared with IN","[2]; 0.8 nmol/mouse, IV administration",earlier
same,"amount of microRNA in the brain, times the basal levels of miR-18a","[2]; IN administration, 0.8 nmol/mouse",approximately 40 times
same,time required to reach the peak levels,"[2]; IN administration, brain",2 h
same,BMP4-3′-UTR-Luc activity,[3],significantly (P<0.001) decreased
same,activation (phosphorylation) of Smad1/5 in brain sections (IHC),[4],decreased
same,expression of BMP4 in brain sections (IHC),[4],decreased
same,expression of HIF-1α in brain sections (IHC),[4],decreased
same,expression of PAI-1 in brain sections (IHC),[4],decreased
same,expression of VEGF in brain sections (IHC),[4],decreased
same,signs of fresh hemorrhage and presence of abnormally enlarged blood vessels in the brain,[4],reduced
